Measured values as given in ChEMBL document CHEMBL1201862, “PubChem BioAssay data set” (2004).
Activity calls are given as the source filed them.

How the values were obtained:
Type in all cases: functional
[1] = molecular target: T1, High affinity choline transporter 1 (Homo sapiens, UniProt Q9GZV3); test: human choline transporter blockers, potency – cell-based, 5-point CRC, membrane potential dye, dose response (AID 504840)
T1 sequence (Q9GZV3 whole entry): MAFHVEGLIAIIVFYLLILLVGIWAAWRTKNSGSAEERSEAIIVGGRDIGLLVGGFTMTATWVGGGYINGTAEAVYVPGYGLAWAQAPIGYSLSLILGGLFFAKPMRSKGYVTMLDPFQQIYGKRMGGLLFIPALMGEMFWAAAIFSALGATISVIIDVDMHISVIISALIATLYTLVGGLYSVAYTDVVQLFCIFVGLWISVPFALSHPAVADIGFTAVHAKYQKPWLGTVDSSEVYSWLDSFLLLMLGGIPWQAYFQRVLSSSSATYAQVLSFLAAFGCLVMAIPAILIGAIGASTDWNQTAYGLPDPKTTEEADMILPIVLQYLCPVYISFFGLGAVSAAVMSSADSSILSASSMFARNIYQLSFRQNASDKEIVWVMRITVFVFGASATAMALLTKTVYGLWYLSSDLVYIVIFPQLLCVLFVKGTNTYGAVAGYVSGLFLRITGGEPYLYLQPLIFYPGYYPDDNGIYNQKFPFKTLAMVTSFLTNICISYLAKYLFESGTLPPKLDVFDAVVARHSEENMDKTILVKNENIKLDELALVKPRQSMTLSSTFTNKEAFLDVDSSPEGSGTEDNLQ

[2] = molecular target: T1, High affinity choline transporter 1; test: human choline transporter blockers, potency – cell-based, 10-point CRC, membrane potential dye, dose response (AID 588401);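 further: membrane potential dye fluorescence of choline-evoked depolarization via CHT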
[3] = molecular target: Tyrosine-protein kinase receptor TYRO3 (Homo sapiens, UniProt Q06418);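 further: TYRO3 value obtained as one member of a kinome-wide profiling panel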
[4] = molecular target: Mitogen-activated protein kinase 8 (Homo sapiens, UniProt P45983);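 further: value comes from one member of a kinome-wide kinase profiling panel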
[5] = molecular target: Mitogen-activated protein kinase 9 (Homo sapiens, UniProt P45984);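 further: value from a kinome panel profiling assay, MAPK9 panel entry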
[6] = molecular target: Leukocyte tyrosine kinase receptor (Homo sapiens, UniProt P29376); test: Navigating the Kinome. Panel member name: LTK
[7] = molecular target: Serine/threonine-protein kinase TAO1 (Homo sapiens, UniProt Q7L7X3)
[8] = molecular target: Macrophage-stimulating protein receptor (Homo sapiens, UniProt Q04912); test: Navigating the Kinome. Panel member name: MST1R
[9] = molecular target: Death-associated protein kinase 3 (Homo sapiens, UniProt O43293);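 further: measured as one member of a kinome-wide profiling panel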
[10] = molecular target: Tyrosine-protein kinase JAK2 (Homo sapiens, UniProt O60674);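 further: JAK2 tested as one member of a kinase panel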
[11] = molecular target: Dual specificity tyrosine-phosphorylation-regulated kinase 1B (Homo sapiens, UniProt Q9Y463); test: Navigating the Kinome. Panel member name: DYRK1B
[12] = molecular target: Leucine-rich repeat serine/threonine-protein kinase 2 (Homo sapiens, UniProt Q5S007);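 further: value from a broad kinome-wide panel profiling study in which LRRK2 was one of the kinases tested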
[13] = molecular target: Glycogen synthase kinase-3 beta (Homo sapiens, UniProt P49841);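 further: value comes from a broad kinome profiling panel, with GSK3B as the panel member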
[14] = molecular target: Mitogen-activated protein kinase kinase kinase kinase 4 (Homo sapiens, UniProt O95819)
[15] = molecular target: Tyrosine-protein kinase ABL1 (Homo sapiens, UniProt P00519)
[16] = molecular target: Cyclin-dependent kinase 8 (Homo sapiens, UniProt P49336); test: Navigating the Kinome. Panel member name: CDK8
[17] = molecular target: Platelet-derived growth factor receptor beta (Homo sapiens, UniProt P09619);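 further: value comes from a kinome panel, with PDGFRB tested as one panel member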
[18] = molecular target: Inhibitor of nuclear factor kappa-B kinase subunit epsilon (Homo sapiens, UniProt Q14164); test: Navigating the Kinome. Panel member name: IKBKE
[19] = molecular target: Vascular endothelial growth factor receptor 1 (Homo sapiens, UniProt P17948);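 further: measured within a kinome-wide profiling panel, FLT1 as the panel member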
[20] = molecular target: Tyrosine-protein kinase Lck (Homo sapiens, UniProt P06239);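 further: lck was assayed as one member of a kinase panel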
Activated CDC42 kinase 1 = Activated CDC42 kinase 1 (Homo sapiens, UniProt Q07912); test: Navigating the Kinome. Panel member name: ACK1
[21] = molecular target: 5'-AMP-activated protein kinase catalytic subunit alpha-1 (Homo sapiens, UniProt Q13131)
[22] = molecular target: Rho-associated protein kinase 1 (Homo sapiens, UniProt Q13464);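 further: measured within a broad kinome-wide panel profiling many kinases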
[23] = molecular target: Insulin-like growth factor 1 receptor (Homo sapiens, UniProt P08069); test: Navigating the Kinome. Panel member name: IGF1R
[24] = molecular target: cAMP-dependent protein kinase catalytic subunit PRKX (Homo sapiens, UniProt P51817)
[25] = molecular target: Casein kinase I isoform alpha (Homo sapiens, UniProt P48729)
[26] = molecular target: Cyclin-dependent kinase 9 (Homo sapiens, UniProt P50750);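 further: value from the CDK9 entry of a kinome-spanning kinase panel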
[27] = molecular target: BDNF/NT-3 growth factors receptor (Homo sapiens, UniProt Q16620);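 further: NTRK2 measured as one member of a broad kinome-wide kinase profiling panel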
[28] = molecular target: Serine/threonine-protein kinase Nek2 (Homo sapiens, UniProt P51955)
[29] = molecular target: Glycogen synthase kinase-3 alpha (Homo sapiens, UniProt P49840);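 further: GSK3A result taken from a broad kinome-wide kinase panel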
[30] = molecular target: Mitogen-activated protein kinase kinase kinase kinase 2 (Homo sapiens, UniProt Q12851);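 further: measured as one member of a kinome-wide kinase panel, with MAP4K2 as the panel entry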
[31] = molecular target: Serine/threonine-protein kinase TBK1 (Homo sapiens, UniProt Q9UHD2); test: Navigating the Kinome. Panel member name: TBK1
[32] = molecular target: ALK tyrosine kinase receptor (Homo sapiens, UniProt Q9UM73);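 further: ALK tested as one member of a kinase panel screen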
[33] = molecular target: Calcium/calmodulin-dependent protein kinase type II subunit alpha (Homo sapiens, UniProt Q9UQM7); test: Navigating the Kinome. Panel member name: CAMK2A
[34] = molecular target: Protein kinase C theta type (Homo sapiens, UniProt Q04759); test: Navigating the Kinome. Panel member name: PRKCQ
[35] = molecular target: Mitogen-activated protein kinase 14 (Homo sapiens, UniProt Q16539);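 further: part of a kinome-wide panel, MAPK14 entry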
[36] = molecular target: Serine/threonine-protein kinase PAK 4 (Homo sapiens, UniProt O96013);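 further: value obtained within a kinome profiling panel in which PAK4 was one of the panel members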
[37] = molecular target: Cyclin-dependent kinase 5 (Homo sapiens, UniProt Q00535);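 further: CDK5 measured as one member of a kinase profiling panel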
[38] = molecular target: High affinity nerve growth factor receptor (Homo sapiens, UniProt P04629);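 further: NTRK1 tested as one member of a kinome-wide profiling panel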
[39] = molecular target: Serine/threonine-protein kinase Chk1 (Homo sapiens, UniProt O14757);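 further: measured as one member of a kinome-wide kinase profiling panel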
[40] = molecular target: Dual specificity protein kinase CLK4 (Homo sapiens, UniProt Q9HAZ1)
[41] = molecular target: Receptor-type tyrosine-protein kinase FLT3 (Homo sapiens, UniProt P36888);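 further: FLT3 was tested as one member of a kinome-wide kinase panel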
[42] = molecular target: Dual specificity protein kinase CLK2 (Homo sapiens, UniProt P49760)
[43] = molecular target: Serine/threonine-protein kinase D3 (Homo sapiens, UniProt O94806);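 further: determined within a kinase panel screen, with PRKCN as the panel member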
Activin receptor type-1 = Activin receptor type-1 (Homo sapiens, UniProt Q04771); test: Navigating the Kinome. Panel member name: ACVR1
[44] = molecular target: cAMP-dependent protein kinase catalytic subunit alpha (Homo sapiens, UniProt P17612)
[45] = molecular target: Tyrosine-protein kinase Fyn (Homo sapiens, UniProt P06241)
Aurora kinase A = Aurora kinase A (Homo sapiens, UniProt O14965);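 further: value from the Navigating the Kinome kinase panel profiling, panel entry STK6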
[46] = molecular target: Fibroblast growth factor receptor 1 (Homo sapiens, UniProt P11362)
[47] = molecular target: Platelet-derived growth factor receptor alpha (Homo sapiens, UniProt P16234); test: Navigating the Kinome. Panel member name: PDGFRA
[48] = molecular target: Cyclin-dependent kinase 7 (Homo sapiens, UniProt P50613);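 further: value comes from a kinome-wide kinase profiling panel in which CDK7 is one member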
LIM domain kinase 1 = LIM domain kinase 1 (Homo sapiens, UniProt P53667); test: Navigating the Kinome. Panel member name: LIMK1
[49] = molecular target: Dual specificity mitogen-activated protein kinase kinase 2 (Homo sapiens, UniProt P36507); test: Navigating the Kinome. Panel member name: MAP2K2
[50] = molecular target: Serine/threonine-protein kinase pim-1 (Homo sapiens, UniProt P11309)
[51] = molecular target: Vascular endothelial growth factor receptor 2 (Homo sapiens, UniProt P35968)
[52] = molecular target: Tyrosine-protein kinase JAK3 (Homo sapiens, UniProt P52333)
[53] = molecular target: Dual specificity tyrosine-phosphorylation-regulated kinase 1A (Homo sapiens, UniProt Q13627);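 further: measured against DYRK1A as one member of a broad kinome profiling panel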
[54] = molecular target: Dual specificity mitogen-activated protein kinase kinase 1 (Homo sapiens, UniProt Q02750); test: Navigating the Kinome. Panel member name: MAP2K1
[55] = molecular target: Macrophage colony-stimulating factor 1 receptor (Homo sapiens, UniProt P07333);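 further: value comes from the Navigating the Kinome screening panel, CSF1R member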
Aurora kinase B = Aurora kinase B (Homo sapiens, UniProt Q96GD4)

Sequence of Activated CDC42 kinase 1 (Q07912 whole entry): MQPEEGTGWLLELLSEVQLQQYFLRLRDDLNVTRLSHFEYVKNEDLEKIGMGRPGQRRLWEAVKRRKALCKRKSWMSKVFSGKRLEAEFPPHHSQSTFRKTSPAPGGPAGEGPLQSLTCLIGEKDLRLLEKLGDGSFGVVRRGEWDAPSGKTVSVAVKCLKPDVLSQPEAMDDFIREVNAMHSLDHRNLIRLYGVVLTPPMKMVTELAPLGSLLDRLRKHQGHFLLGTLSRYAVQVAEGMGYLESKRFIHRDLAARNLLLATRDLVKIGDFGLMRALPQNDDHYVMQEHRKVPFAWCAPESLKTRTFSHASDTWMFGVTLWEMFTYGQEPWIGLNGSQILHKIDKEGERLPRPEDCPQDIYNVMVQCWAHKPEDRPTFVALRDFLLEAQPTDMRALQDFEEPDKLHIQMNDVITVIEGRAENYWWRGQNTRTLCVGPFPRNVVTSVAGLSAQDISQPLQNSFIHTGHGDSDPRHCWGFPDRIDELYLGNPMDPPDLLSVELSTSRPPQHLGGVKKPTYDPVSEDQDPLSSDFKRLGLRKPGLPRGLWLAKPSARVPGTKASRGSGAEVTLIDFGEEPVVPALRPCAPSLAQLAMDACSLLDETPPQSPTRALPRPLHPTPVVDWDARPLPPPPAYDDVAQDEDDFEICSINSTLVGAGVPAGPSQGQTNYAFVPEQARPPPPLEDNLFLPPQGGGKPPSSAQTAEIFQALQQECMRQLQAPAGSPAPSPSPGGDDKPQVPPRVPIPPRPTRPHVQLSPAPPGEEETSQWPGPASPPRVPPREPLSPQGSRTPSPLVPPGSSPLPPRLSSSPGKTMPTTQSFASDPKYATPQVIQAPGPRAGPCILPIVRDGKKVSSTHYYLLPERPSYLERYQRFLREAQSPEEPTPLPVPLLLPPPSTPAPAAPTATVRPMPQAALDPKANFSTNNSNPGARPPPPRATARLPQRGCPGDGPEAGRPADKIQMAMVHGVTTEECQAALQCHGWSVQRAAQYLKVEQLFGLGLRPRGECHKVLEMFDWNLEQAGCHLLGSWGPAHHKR
Sequence of Tyrosine-protein kinase receptor TYRO3 (Q06418 whole entry): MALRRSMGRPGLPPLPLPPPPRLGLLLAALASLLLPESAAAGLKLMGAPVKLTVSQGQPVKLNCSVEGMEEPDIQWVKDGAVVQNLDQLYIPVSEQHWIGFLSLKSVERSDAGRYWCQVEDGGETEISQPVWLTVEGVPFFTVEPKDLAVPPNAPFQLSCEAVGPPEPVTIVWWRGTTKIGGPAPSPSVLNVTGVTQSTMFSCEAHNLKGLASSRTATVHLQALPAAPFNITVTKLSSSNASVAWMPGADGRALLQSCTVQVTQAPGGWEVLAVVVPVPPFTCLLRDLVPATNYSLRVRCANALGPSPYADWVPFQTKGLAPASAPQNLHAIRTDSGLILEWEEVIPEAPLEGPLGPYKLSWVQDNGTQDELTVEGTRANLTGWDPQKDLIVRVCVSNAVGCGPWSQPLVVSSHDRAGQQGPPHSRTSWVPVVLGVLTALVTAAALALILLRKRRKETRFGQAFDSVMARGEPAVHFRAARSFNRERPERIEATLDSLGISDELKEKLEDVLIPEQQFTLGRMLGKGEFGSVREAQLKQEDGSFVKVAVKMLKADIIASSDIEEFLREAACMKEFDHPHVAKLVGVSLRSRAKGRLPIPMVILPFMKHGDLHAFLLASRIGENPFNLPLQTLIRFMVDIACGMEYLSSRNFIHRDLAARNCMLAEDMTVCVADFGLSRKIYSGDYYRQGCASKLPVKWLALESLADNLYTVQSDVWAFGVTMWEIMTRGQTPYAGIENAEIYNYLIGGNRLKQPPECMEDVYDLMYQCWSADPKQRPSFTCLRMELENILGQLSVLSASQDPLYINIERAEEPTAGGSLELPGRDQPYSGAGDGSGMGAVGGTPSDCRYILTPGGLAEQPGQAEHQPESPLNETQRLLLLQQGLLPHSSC
Sequence of Cyclin-dependent kinase 9 (P50750 whole entry): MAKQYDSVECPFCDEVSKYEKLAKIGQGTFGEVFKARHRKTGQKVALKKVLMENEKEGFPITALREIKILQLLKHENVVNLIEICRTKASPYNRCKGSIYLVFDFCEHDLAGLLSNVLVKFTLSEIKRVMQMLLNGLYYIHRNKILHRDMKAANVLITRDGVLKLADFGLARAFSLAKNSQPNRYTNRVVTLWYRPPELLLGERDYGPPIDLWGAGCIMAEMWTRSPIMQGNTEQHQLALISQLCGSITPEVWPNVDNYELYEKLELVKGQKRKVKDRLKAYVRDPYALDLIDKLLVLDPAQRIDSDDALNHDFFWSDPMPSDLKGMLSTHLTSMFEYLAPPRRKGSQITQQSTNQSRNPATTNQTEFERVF
Sequence of Mitogen-activated protein kinase kinase kinase kinase 2 (Q12851 whole entry): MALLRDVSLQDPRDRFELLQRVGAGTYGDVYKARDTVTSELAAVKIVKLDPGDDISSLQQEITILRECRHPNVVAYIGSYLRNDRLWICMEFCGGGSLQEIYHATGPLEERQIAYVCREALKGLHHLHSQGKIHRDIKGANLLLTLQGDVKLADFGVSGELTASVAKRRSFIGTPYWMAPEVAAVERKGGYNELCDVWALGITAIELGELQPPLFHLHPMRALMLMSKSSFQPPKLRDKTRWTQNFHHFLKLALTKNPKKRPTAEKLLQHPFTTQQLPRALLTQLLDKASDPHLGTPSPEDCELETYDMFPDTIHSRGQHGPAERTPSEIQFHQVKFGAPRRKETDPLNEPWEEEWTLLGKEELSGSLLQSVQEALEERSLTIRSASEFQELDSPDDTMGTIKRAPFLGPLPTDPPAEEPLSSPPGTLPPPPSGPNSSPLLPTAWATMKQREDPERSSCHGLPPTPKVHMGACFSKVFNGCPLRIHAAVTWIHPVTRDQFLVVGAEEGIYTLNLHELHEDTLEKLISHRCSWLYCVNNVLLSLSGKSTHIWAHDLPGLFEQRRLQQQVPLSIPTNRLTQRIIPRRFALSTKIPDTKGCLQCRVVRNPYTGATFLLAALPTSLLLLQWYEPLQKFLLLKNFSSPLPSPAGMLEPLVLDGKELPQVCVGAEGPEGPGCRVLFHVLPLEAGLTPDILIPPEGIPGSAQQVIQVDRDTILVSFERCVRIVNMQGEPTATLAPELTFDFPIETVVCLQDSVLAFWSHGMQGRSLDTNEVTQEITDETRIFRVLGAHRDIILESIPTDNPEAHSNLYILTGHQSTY
Sequence of Serine/threonine-protein kinase D3 (O94806 whole entry): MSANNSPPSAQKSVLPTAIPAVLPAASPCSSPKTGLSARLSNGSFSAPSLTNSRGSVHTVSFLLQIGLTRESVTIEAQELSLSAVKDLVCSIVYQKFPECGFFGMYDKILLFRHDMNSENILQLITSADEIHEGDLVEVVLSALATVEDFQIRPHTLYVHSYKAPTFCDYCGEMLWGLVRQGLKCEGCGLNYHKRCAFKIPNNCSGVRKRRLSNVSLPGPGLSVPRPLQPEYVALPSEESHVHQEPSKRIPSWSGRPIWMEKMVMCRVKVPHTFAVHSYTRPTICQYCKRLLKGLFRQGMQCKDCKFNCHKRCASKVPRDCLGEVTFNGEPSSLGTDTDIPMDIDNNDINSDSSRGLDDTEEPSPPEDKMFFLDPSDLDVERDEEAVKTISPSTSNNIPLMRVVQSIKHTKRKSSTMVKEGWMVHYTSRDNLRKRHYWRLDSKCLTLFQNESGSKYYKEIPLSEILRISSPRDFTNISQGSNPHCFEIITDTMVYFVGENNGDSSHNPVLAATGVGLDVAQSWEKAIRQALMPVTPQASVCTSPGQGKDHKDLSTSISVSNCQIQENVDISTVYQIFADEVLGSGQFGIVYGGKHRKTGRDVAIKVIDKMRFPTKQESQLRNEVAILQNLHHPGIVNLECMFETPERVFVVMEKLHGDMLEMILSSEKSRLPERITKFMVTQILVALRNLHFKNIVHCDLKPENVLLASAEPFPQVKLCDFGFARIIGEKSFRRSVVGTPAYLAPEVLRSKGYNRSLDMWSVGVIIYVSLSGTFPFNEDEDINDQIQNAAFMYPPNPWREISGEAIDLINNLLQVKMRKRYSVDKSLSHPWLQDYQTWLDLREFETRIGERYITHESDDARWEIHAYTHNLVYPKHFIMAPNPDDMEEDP
Sequence of Cyclin-dependent kinase 8 (P49336 whole entry): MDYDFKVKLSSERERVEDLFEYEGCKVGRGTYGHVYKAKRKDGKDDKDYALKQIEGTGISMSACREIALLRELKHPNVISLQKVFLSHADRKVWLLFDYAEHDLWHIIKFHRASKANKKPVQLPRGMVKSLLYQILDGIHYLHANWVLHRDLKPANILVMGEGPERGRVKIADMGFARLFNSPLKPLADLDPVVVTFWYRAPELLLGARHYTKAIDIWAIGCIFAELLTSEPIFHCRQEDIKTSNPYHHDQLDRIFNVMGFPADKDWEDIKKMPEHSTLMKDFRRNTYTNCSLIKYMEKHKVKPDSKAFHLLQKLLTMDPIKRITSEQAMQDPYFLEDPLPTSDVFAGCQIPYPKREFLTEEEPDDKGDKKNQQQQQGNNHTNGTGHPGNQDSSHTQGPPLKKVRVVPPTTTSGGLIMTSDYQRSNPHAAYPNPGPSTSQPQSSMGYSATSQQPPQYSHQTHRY
Sequence of Casein kinase I isoform alpha (P48729 whole entry, canonical isoform): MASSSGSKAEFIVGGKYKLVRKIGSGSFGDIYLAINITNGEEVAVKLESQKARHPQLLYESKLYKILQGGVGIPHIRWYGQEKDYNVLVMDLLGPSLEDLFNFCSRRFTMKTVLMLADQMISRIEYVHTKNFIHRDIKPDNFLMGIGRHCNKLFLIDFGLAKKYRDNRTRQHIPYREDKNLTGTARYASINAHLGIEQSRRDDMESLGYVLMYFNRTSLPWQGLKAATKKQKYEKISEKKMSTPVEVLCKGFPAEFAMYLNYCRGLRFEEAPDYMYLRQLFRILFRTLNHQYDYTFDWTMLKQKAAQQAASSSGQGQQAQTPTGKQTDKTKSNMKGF

## COc1ccc(C(CNC(=O)c2cccc(S(=O)(=O)Nc3ccc(C)cc3)c2)N2CCCCC2)cc1 (stereo not given)
[1]
  IC50: 8.72 µM (active)
[2]
  IC50: 5.77 µM (active)

## N#Cc1ccc2c(c1)C(c1ccc3c(n1)CCCC3O)C(=O)N2 (stereo not given)
[3]
  Ki: 2.51 µM (active)
[4]
  Ki: 1.26 µM (active)
[5]
  Ki: > 3.98 µM (inactive)
[6]
  Ki: 0.501 µM (active)
[7]
  Ki: > 6.31 µM (inactive)
[8]
  Ki: 0.316 µM (active)
[9]
  Ki: 1.26 µM (active)
[10]
  Ki: > 2.51 µM (inactive)
[11]
  Ki: 0.126 µM (active)
[12]
  Ki: 1.26 µM (active)
[13]
  Ki: 0.0316 µM (active)
[14]
  Ki: 0.316 µM (active)
[15]
  Ki: > 2.51 µM (inactive)
[16]
  Ki: > 3.98 µM (inactive)
[17]
  Ki: 0.316 µM (active)
[18]
  Ki: 2 µM (active)
[19]
  Ki: 1.58 µM (active)
[20]
  Ki: > 6.31 µM (inactive)
Activated CDC42 kinase 1
  Ki: > 3.98 µM (inactive)
[21]
  Ki: 1.26 µM (active)
[22]
  Ki: 2 µM (active)
[23]
  Ki: > 2.51 µM (inactive)
[24]
  Ki: > 3.16 µM (inactive)
[25]
  Ki: 0.0398 µM (active)
[26]
  Ki: 0.631 µM (active)
[27]
  Ki: 2 µM (active)
[28]
  Ki: > 3.16 µM (inactive)
[29]
  Ki: 0.0794 µM (active)
[30]
  Ki: 1.58 µM (active)
[31]
  Ki: 0.794 µM (active)
[32]
  Ki: 2.51 µM (active)
[33]
  Ki: > 3.98 µM (inactive)
[34]
  Ki: > 2.51 µM (inactive)
[35]
  Ki: > 3.98 µM (inactive)
[36]
  Ki: > 5.01 µM (inactive)
[37]
  Ki: > 3.16 µM (inactive)
[38]
  Ki: > 3.16 µM (inactive)
[39]
  Ki: > 3.16 µM (inactive)
[40]
  Ki: 0.0316 µM (active)
[41]
  Ki: 0.1 µM (active)
[42]
  Ki: 0.398 µM (active)
[43]
  Ki: 3.16 µM (active)
Activin receptor type-1
  Ki: 2 µM (active)
[44]
  Ki: > 1.26 µM (inactive)
[45]
  Ki: > 6.31 µM (inactive)
Aurora kinase A
  Ki: 1.58 µM (active)
[46]
  Ki: 3.16 µM (active)
[47]
  Ki: > 2.51 µM (inactive)
[48]
  Ki: 0.0398 µM (active)
LIM domain kinase 1
  Ki: > 3.16 µM (inactive)
[49]
  Ki: 0.794 µM (active)
[50]
  Ki: > 6.31 µM (inactive)
[51]
  Ki: 0.158 µM (active)
[52]
  Ki: > 5.01 µM (inactive)
[53]
  Ki: 0.1 µM (active)
[54]
  Ki: 1 µM (active)
[55]
  Ki: 0.126 µM (active)
Aurora kinase B
  Ki: 0.501 µM (active)
